Test results: patent publication US5006534A, “Substituted ethers, thioethers and amines for use as lipoxygenase inhibitors” (Bayer Aktiengesellschaft, priority 1985, dated 1991)

What was measured:
lipoxygenase = assay: LTB4 release on polymorphonuclear rat leucocytes (PMN) by RP-HPLC after Ca ionophor, as a measure of lipoxygenase inhibition; assay type: cell-based
Procedure: The release of leukotriene B4 (LTB4) was determined on polymorphonuclear rat leucocytes (PMN) by means of reverse phase high performance liquid chromatography, after addition of substances and Ca ionophor, in accordance with the method of Borgeat, P. et al., Proc. Nat. Acad. Sci., 76, 2148-2152 (1979) as a measure of the lipoxygenase inhibition.

mouse ear inflammation = mouse ear inflammation model; assay type: in vivo

SMILES	LO inhibition IC50 values (lipoxygenase) [µg/mL]	Inhibition of inflammation at 2 mg/ear (mouse ear inflammation) [%]
CCCCCC(OC(C)=O)c1cccc(COc2cccc3cccnc23)c1 (centres unmarked) [Example 38, 1-[3-(Quinolin-8-yloxymethyl)phenyl]hexyl acetate]	0.14	75.0
CCCCCCC(OC(C)=O)c1cccc(COc2cccc3cccnc23)c1 (centres unmarked) [Example 39, 1-[3-(Quinolin-8-yloxymethyl)phenyl]heptyl acetate]	0.26	72.0
CCCCC(O)c1cccc(COc2cccc3cccnc23)c1 (centres unmarked) [Example 55, 1-[3-(Quinolin-8-yloxymethyl)phenyl]pentanol]	0.083	70.0
CCCCCCC(O)c1cccc(COc2cccc3cccnc23)c1 (centres unmarked) [Example 57, 1-[3-(Quinolin-8-yloxymethyl)phenyl]heptanol]	0.23	86.1
